Patent US20230075521A1, “RESVERATROL PHARMACEUTICAL COMPOSITIONS AND METHODS OF USE THEREOF” (priority 2021, published 2023)
Where “and” joins values, the source holds several entries; their conditions need not be identical. Equal values may be shown once. Read-outs that look alike come from different tables or passages of the source.

Key:
[1] = Mouse PK study, resveratrol in brain; assay type: in vivo, CD-1 mice; details: male mice, single dose 50 mg/kg oral, 30 min
Protocol: For mouse PK studies, male CD-1 mice (Charles River Canada) were used. Animals were food fasted for 4 h prior to dosing and water fasted 1 h prior to dosing. […] At each time point (15 min, 30 min, 1 h, 4 h) 3 mice of each group were terminally bled via cardiac puncture under red light. Blood was collected into sodium-EDTA tubes under red light and spun at […] for 10 min at 6800×g. Plasma was collected and split into amber tubes. Both left and right brain were collected and snap-frozen in liquid nitrogen and stored at […] Drug concentrations were analyzed by liquid chromatography-mass spectrometry (LC-MS/MS) by KDM Laboratories Inc. For rat PK studies, male Sprague-Dawley rats (Charles River Canada) were used. […] Blood was collected under red light from the trunk at 30 min into K3EDTA tubes and centrifuged immediately at 4° C. for 10 min at 6800×g, and plasma collected into amber tubes. Brains were collected and snap-frozen in liquid nitrogen and stored at […] Drug concentration was analyzed by LC-MS/MS.

[2] = test system: Human Aβ1-42, Aβ1-40, phosphorylated tau, total tau; experiment: ELISA of AD pathological hallmarks in brain tissue; assay type: in vivo, 3×Tg-AD mouse; details: 50 mg/kg oral, 9 months
Protocol: At study endpoints (age 15 months for sub-chronic study, age 13 months for long-term study), mice were anaesthetized with isoflurane and blood was collected by transcardial puncture. Blood was stored on ice and then centrifuged at 10,000×g at 4° C. for 10 min to collect serum and stored at −80° C. until use. The brain was then extracted and quickly dissected on ice to collect prefrontal cortex (PFC), hippocampus, entorhinal cortex (ERC), and cerebellum, which were immediately frozen in liquid nitrogen. The samples were stored at −80° C. until processed for RNA or protein extraction. […]
Protein lysates were extracted by sonicating tissue in M-PER Mammalian Protein Extraction Reagent (Thermo Fisher Scientific) supplemented with protease inhibitor (Thermo Fisher Scientific) and phosphatase inhibitor (Thermo Fisher Scientific). Total protein was quantified using Pierce BCA Protein Assay Kit (Thermo Fisher Scientific) and read at 562 nm using EnVision (Perkin Elmer).
Human Aβ1-42, Aβ1-40, phosphorylated tau Ser 396, phosphorylated tau Thr181, and total tau were measured in brain tissue by enzyme linked immuno-sorbent assay (ELISA; Invitrogen by Thermo) and normalized to total protein. All the kits were used as per the manufacturer's instructions and measured using the EnVision® multimode plate reader (Perkin Elmer). […]

[3] = test system: AD-related gene expression; experiment: RT-qPCR of brain regions, long-term treatment; assay type: in vivo, 3×Tg-AD mouse; details: 3×Tg-AD mice, 50 mg/kg, 9 months
Protocol: (§1) At study endpoints (age 15 months for sub-chronic study, age 13 months for long-term study), mice were anaesthetized with isoflurane and blood was collected by transcardial puncture. Blood was stored on ice and then centrifuged at 10,000×g at 4° C. for 10 min to collect serum and stored at −80° C. until use. The brain was then extracted and quickly dissected on ice to collect prefrontal cortex (PFC), hippocampus, entorhinal cortex (ERC), and cerebellum, which were immediately frozen in liquid nitrogen. The samples were stored at −80° C. until processed for RNA or protein extraction. For each mouse, brain regions from one hemisphere were used for RNA preparation and qPCR and sections from the other hemisphere were used for protein work including ELISAs.

[4] = test system: serum cytokines and chemokines; experiment: Serum cytokine and chemokine levels (48-Plex ProcartaPlex, Luminex); assay type: in vivo, 3×Tg-AD mouse; details: 50 mg/kg oral, 9 months
Protocol: as §1
Human Aβ1-42, Aβ1-40, phosphorylated tau Ser 396, phosphorylated tau Thr181, and total tau were measured in brain tissue by enzyme linked immuno-sorbent assay (ELISA; Invitrogen by Thermo) and normalized to total protein. All the kits were used as per the manufacturer's instructions and measured using the EnVision® multimode plate reader (Perkin Elmer). Serum and brain tissue protein extracts were analyzed for cytokine and chemokine levels using the Immune Monitoring 48-Plex Mouse ProcartaPlex™ Panel (Invitrogen by Thermo) according to manufacturer's standard protocol and read using Luminex xMAP (multi-analyte profiling) technology.

[5] = cited from earlier work

In the case of `Oc1ccc(/C=C/c2cc(O)cc(O)c2)cc1` [RSV, (trans-)resveratrol], the “Resveratrol accumulation in the brain” value [1] is reported as “not detected in the brain”, the “Phospho-tau at Ser396 in PFC, RSV-treated vs vehicle” value ([2]; male 3×Tg-AD mice) is reported as “significantly different” and the “Total tau in hippocampus, decrease vs vehicle” value ([2]; males and females analyzed together) is reported as 170.5±44.83. For the same molecule, the “Adam10 expression in PFC, increase vs vehicle” value [3] was 20.44%, the “BAFF serum level, change vs vehicle” value ([4]; female 3×Tg-AD mice) was 22.01 pg/mL and the “G-CSF serum level, change vs vehicle” value ([4]; female 3×Tg-AD mice) was -0.68 pg/mL. The “IFNg serum level, change vs vehicle” value ([4]; female 3×Tg-AD mice) was 1.06 pg/mL, the “IL-1b serum level, change vs vehicle” value ([4]; female 3×Tg-AD mice) was 0.80 pg/mL and the “IL-2RA serum level, change vs vehicle” value ([4]; female 3×Tg-AD mice) was -71.13 pg/mL. The “IL-3 serum level, change vs vehicle” value ([4]; female 3×Tg-AD mice) was 0.15 pg/mL, the “IL-5 serum level, change vs vehicle” value ([4]; female 3×Tg-AD mice) was 0.05 pg/mL and the “IL-6 serum level, change vs vehicle” value ([4]; female 3×Tg-AD mice) was -10.05 pg/mL. For the same molecule, the “IL-9 serum level, change vs vehicle” value ([4]; female 3×Tg-AD mice) was 13.83 pg/mL, the “IL-10 serum level, change vs vehicle” value ([4]; female 3×Tg-AD mice) was -8.54 pg/mL and the “IL-12p70 serum level, change vs vehicle” value ([4]; female 3×Tg-AD mice) was 0.15 pg/mL. The “IL-13 serum level, change vs vehicle” value ([4]; female 3×Tg-AD mice) was 15.44 pg/mL, the “IL-15/IL-15R serum level, change vs vehicle” value ([4]; female 3×Tg-AD mice) was 0.51 pg/mL and the “IL-17A serum level, change vs vehicle” value ([4]; female 3×Tg-AD mice) was -5.14 pg/mL. For the same molecule, the “IL-18 serum level, change vs vehicle” value ([4]; female 3×Tg-AD mice) was -74.10 pg/mL, the “IL-19 serum level, change vs vehicle” value ([4]; female 3×Tg-AD mice) was -17.31 pg/mL and the “IL-22 serum level, change vs vehicle” value ([4]; female 3×Tg-AD mice) was -2.84 pg/mL. For the same molecule, the “IL-23 serum level, change vs vehicle” value ([4]; female 3×Tg-AD mice) was 16.41 pg/mL, the “IL-25/IL-17 serum level, change vs vehicle” value ([4]; female 3×Tg-AD mice) was -12.62 pg/mL and the “IL-27 serum level, change vs vehicle” value ([4]; female 3×Tg-AD mice) was 0.92 pg/mL. For the same molecule, the “IL-28 serum level, change vs vehicle” value ([4]; female 3×Tg-AD mice) was 5.70 pg/mL, the “IL-33 serum level, change vs vehicle” value ([4]; female 3×Tg-AD mice) was -4.36 pg/mL and the “IP-10 serum level, change vs vehicle” value ([4]; female 3×Tg-AD mice) was -9.75 pg/mL. For the same molecule, the “KC serum level, change vs vehicle” value ([4]; female 3×Tg-AD mice) was -41.09 pg/mL, the “LIF serum level, change vs vehicle” value ([4]; female 3×Tg-AD mice) was -1.86 pg/mL and the “LIX serum level, change vs vehicle” value ([4]; female 3×Tg-AD mice) was 1701.00 pg/mL. The “MCP-1 serum level, change vs vehicle” value ([4]; female 3×Tg-AD mice) was -43.64 pg/mL, the “MCP-3 serum level, change vs vehicle” value ([4]; female 3×Tg-AD mice) was -212.20 pg/mL and the “MIP-1a serum level, change vs vehicle” value ([4]; female 3×Tg-AD mice) was 3.71 pg/mL. For the same molecule, the “MIP-1b serum level, change vs vehicle” value ([4]; female 3×Tg-AD mice) was 0.17 pg/mL, the “MIP-2 serum level, change vs vehicle” value ([4]; female 3×Tg-AD mice) was -7.86 pg/mL and the “RANTES serum level, change vs vehicle” value ([4]; female 3×Tg-AD mice) was -9.09 pg/mL. For the same molecule, the “TNFa serum level, change vs vehicle” value ([4]; female 3×Tg-AD mice) was -2.67 pg/mL, the “sRANKL serum level, change vs vehicle” value ([4]; female 3×Tg-AD mice) was -0.58 pg/mL and the “Eotaxin serum level, change vs vehicle” value ([4]; female 3×Tg-AD mice, 50 mg/kg) was -3162 ± 1165 pg/mL and -3162.00 pg/mL. For the same molecule, the “Leptin serum level, change vs vehicle” value ([4]; female 3×Tg-AD mice, 50 mg/kg) was -33707 ± 9226 pg/mL and -33707.0 pg/mL, the “BAFF serum level, change vs vehicle” value ([4]; male 3×Tg-AD mice) was -44.06 pg/mL and the “Eotaxin serum level, change vs vehicle” value ([4]; male 3×Tg-AD mice) was 943.10 pg/mL. For the same molecule, the “G-CSF serum level, change vs vehicle” value ([4]; male 3×Tg-AD mice) was -5.14 pg/mL, the “IFNg serum level, change vs vehicle” value ([4]; male 3×Tg-AD mice) was -0.66 pg/mL and the “IL-1b serum level, change vs vehicle” value ([4]; male 3×Tg-AD mice) was -5.86 pg/mL. The “IL-2RA serum level, change vs vehicle” value ([4]; male 3×Tg-AD mice) was -21.16 pg/mL, the “IL-5 serum level, change vs vehicle” value ([4]; male 3×Tg-AD mice) was 8.72 pg/mL and the “IL-6 serum level, change vs vehicle” value ([4]; male 3×Tg-AD mice) was -60.32 pg/mL. The “IL-9 serum level, change vs vehicle” value ([4]; male 3×Tg-AD mice) was -9.66 pg/mL, the “IL-10 serum level, change vs vehicle” value ([4]; male 3×Tg-AD mice) was 2.25 pg/mL and the “IL-12p70 serum level, change vs vehicle” value ([4]; male 3×Tg-AD mice) was -13.72 pg/mL. For the same molecule, the “IL-13 serum level, change vs vehicle” value ([4]; male 3×Tg-AD mice) was -72.28 pg/mL, the “IL-15/IL-15R serum level, change vs vehicle” value ([4]; male 3×Tg-AD mice) was -11.93 pg/mL and the “IL-17A serum level, change vs vehicle” value ([4]; male 3×Tg-AD mice) was -6.64 pg/mL. The “IL-18 serum level, change vs vehicle” value ([4]; male 3×Tg-AD mice) was -415.10 pg/mL, the “IL-19 serum level, change vs vehicle” value ([4]; male 3×Tg-AD mice) was -23.06 pg/mL and the “IL-23 serum level, change vs vehicle” value ([4]; male 3×Tg-AD mice) was -12.74 pg/mL. For the same molecule, the “IL-25/IL-17 serum level, change vs vehicle” value ([4]; male 3×Tg-AD mice) was -235.80 pg/mL, the “IL-28 serum level, change vs vehicle” value ([4]; male 3×Tg-AD mice) was -44.41 pg/mL and the “IL-33 serum level, change vs vehicle” value ([4]; male 3×Tg-AD mice) was 107.60 pg/mL. For the same molecule, the “IP-10 serum level, change vs vehicle” value ([4]; male 3×Tg-AD mice) was -47.95 pg/mL, the “KC serum level, change vs vehicle” value ([4]; male 3×Tg-AD mice) was -90.17 pg/mL and the “LIF serum level, change vs vehicle” value ([4]; male 3×Tg-AD mice) was -8.06 pg/mL. For the same molecule, the “LIX serum level, change vs vehicle” value ([4]; male 3×Tg-AD mice) was -6715.00 pg/mL, the “Leptin serum level, change vs vehicle” value ([4]; male 3×Tg-AD mice) was -1768.00 pg/mL and the “MIP-1a serum level, change vs vehicle” value ([4]; male 3×Tg-AD mice) was 4.01 pg/mL. For the same molecule, the “MIP-1b serum level, change vs vehicle” value ([4]; male 3×Tg-AD mice) was -6.40 pg/mL, the “RANTES serum level, change vs vehicle” value ([4]; male 3×Tg-AD mice) was -24.75 pg/mL and the “TNFa serum level, change vs vehicle” value ([4]; male 3×Tg-AD mice) was -0.08 pg/mL. For the same molecule, the “VEGF-A serum level, change vs vehicle” value ([4]; male 3×Tg-AD mice) was -17.68 pg/mL, the “sRANKL serum level, change vs vehicle” value ([4]; male 3×Tg-AD mice) was 4.06 pg/mL and the “IL-3 serum level, change vs vehicle” value ([4]; male 3×Tg-AD mice, 50 mg/kg) was -1.53 ± 0.26 pg/mL and -1.53 pg/mL. The “IL-22 serum level, change vs vehicle” value ([4]; male 3×Tg-AD mice, 50 mg/kg) was -23.37 ± 5.2 pg/mL and -23.37 pg/mL, the “MIP-2 serum level, change vs vehicle” value ([4]; male 3×Tg-AD mice, 50 mg/kg) was -16.16 ± 5.95 pg/mL and -16.16 pg/mL and the Cmax ([5]; 1 g encapsulated dose (Turner et al. 2015)) was 85 ng/mL. The Cmax ([5]; 2.5 g micronized dose (Howells et al. 2011)) was 1942 ng/mL and the “AUC exposure, estimated” value ([5]; 3,000 mg/day, healthy volunteers, published data) was 2100 ng·h/mL.
